According to patent publication US6048893A, “Substituted phenyl compounds with a substituent having A 1,3-benzodioxole ring” (Rhone-Poulenc Rorer Limited, priority 1995, dated 2000):
Non-standard residues stand in square brackets, D forms with d. Residues, ends and D or L forms follow the SMILES beside them.

Key:
A10 cell ETA receptors = biological target: T1, A10 cell ETA receptors (Rattus norvegicus, UniProt P26684); assay: Inhibition of [125I]-ET-1 binding to A10 cell ETA receptors; conditions: [125I]-ET-1 20 pM, 2 hours at 37 C; read-out: concentration producing 50% inhibition of the binding of [125I]-ET-1 to A10 cell ETA receptors
T1 construct: endogenous in cells; host or cells: A10 cells (frozen cells, about 60,000 per well)
T1 sequence (P26684 21-426): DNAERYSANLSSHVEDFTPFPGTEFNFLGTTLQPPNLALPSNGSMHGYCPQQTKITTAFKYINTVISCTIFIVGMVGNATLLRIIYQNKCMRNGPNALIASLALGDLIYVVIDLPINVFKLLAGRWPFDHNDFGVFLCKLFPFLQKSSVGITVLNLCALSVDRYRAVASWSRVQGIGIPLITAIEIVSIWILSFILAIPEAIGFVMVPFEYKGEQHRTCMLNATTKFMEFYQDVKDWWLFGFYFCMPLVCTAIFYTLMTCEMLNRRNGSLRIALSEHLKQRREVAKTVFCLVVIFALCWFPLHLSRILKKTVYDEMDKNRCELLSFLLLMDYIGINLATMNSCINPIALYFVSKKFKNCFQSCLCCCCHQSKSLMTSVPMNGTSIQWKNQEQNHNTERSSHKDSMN
Experimental: A) Preparation of ETA Receptors:
A10 cells are grown to confluence in Dulbecco's modified essential medium containing 10% foetal calf serum. Two days after the final medium change cells are harvested by scraping from the base of the flask and centrifuged at 1500 rpm for 10 minutes at 4-- C in an bench centrifuge. The resulting pellets are washed in 50 mM Hepes buffer pH 7.3 containing calcium chloride (1 mM) and magnesium chloride (5 mM) and resuspended at a density of 140,000 cells/ml in the same. Cell suspensions are then frozen using a mixture of methanol and solid carbon dioxide and stored at -20-- C until required. For use in the assay cells are diluted to the required density with Hepes buffer pH 7.3.
(§1) Assays are performed using Millipore 96 well filtration plates with 0.22 μm filters in a final volume of […]. Mixtures consisting of test compound and [^125 I]-ET-1 (20 pM) in buffer pH 7.4 containing 0.1% bovine serum albumin are treated with either A10 cells or cerebellum protein. Total and non-specific binding are measured in the absence and presence of unlabeled ET-1 (100 nM). Approximately 60,000 A10 cells are used per well or 5 μg of cerebellum protein. Plates are incubated for 2 hours at 37-- C before the reaction is terminated by vacuum filtration. Plates are washed twice with assay buffer at 4-- C and the filters are punched out for gamma counting.

[1] = biological target: T2, rat cerebellum ETB receptors (Rattus norvegicus, UniProt P21451); assay: Inhibition of [125I]-ET-1 binding to rat cerebellum ETB receptors; conditions: [125I]-ET-1 20 pM, 2 hours at 37 C; read-out: concentration producing 50% inhibition of the binding of [125I]-ET-1 to rat cerebellum ETB receptors
T2 construct: from tissue; host or cells: rat cerebellum, particulate fraction (4000 g pellet)
T2 sequence (P21451 27-442): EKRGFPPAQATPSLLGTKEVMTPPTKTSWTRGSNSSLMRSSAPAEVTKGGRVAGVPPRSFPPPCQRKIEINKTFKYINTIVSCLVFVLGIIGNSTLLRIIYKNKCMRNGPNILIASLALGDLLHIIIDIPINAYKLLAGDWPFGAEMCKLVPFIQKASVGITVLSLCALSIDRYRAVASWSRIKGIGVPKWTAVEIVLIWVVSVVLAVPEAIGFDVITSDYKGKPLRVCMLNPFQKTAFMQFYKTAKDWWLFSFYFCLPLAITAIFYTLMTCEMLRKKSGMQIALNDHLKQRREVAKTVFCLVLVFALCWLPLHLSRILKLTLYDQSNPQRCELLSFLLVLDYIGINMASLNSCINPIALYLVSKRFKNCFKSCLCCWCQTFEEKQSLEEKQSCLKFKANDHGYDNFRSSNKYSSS
Experimental: B) Preparation of ETB Receptors:
Rats are killed by cervical dislocation and the cerebellum tissue is removed into ice cold Tris buffer pH 7.4 containing sucrose (0.25M), ethylenediaminetetracetic acid (3 mM), and a cocktail of protease inhibitors. After homogenizing using a glass/teflon manual homogenizer, the samples are centrifuged at 4-- C for 17 minutes at 1000 g, and the resulting supernatants are retained. This material is centrifuged at 4000 g for 35 minutes at 4-- C and the pellets are resuspended in 50 mM Tris buffer pH 7.4, and the protein concentration is measured. Aliquots of […] are frozen in a mixture of methanol and solid carbon dioxide and stored at -20-- C until required. For use in the assay samples are diluted to the required concentration with Tris buffer pH 7.4 containing 0.1% bovine serum albumin.
as §1, with “Plates are washed twice with assay buffer at 4-- C and the filters are punched out for gamma counting.” left out

hamster bleomycin model = conditions: cited from earlier work

SMILES | IC50 (A10 cell ETA receptors) [µM] | IC50 [1] [µM] | anti-fibrotic effect (hamster bleomycin model)
Cc1ccccc1[C@H](Oc1cc(OCc2ccc3c(c2)OCO3)ccc1C#N)C(=O)O | 0.006 | 35 | 
CC(C)C[C@@H]1NC(=O)[C@@H](C(C)C)NC(=O)[C@@H]2CCCN2C(=O)[C@@H](CC(=O)O)NC(=O)[C@@H](Cc2c[nH]c3ccccc23)NC1=O [BQ123] (cyclo(L[dW][dD]P[dV])) |  |  | anti-fibrotic effects
